# Assay results: patent US20250340519A1, “RADIOLABELLED COMPOUND” (OXFORD UNIVERSITY INNOVATION LIMITED, priority 2018, published 2025)
# Values joined by “and” are separate entries in the source; they are usually repeats but may differ in a detail not shown here. Identical values can stand only once.
# Legend:
# [1] = Ex vivo biodistribution in naïve CBA/Carl mice; details: 1 h p.i., individual animals
# Protocol: (§1) Dynamic PET/CT images were acquired following an intravenous bolus administration of [^18F]-olaparib. Biodistribution studies, where selected tissues were harvested, were performed 1 h post injection. Some animals were also administered an excess of cold, unlabelled olaparib for evaluating the specificity of tumour uptake. EF5, a hypoxia-selective marker, was injected 2 h before culling of the animal. Digital autoradiography was performed on tumour sections. Image analysis was performed using PMOD.
# (§2) Dynamic PET/CT images were acquired using a VECTor ^4CT integrated PET/CT system. Mice were anaesthetised by 4% isoflurane gas (0.5 L/min O2) and placed on a custom-built imaging cradle in a prone position. Animals mice were intravenously injected with [^18F]-olaparib or (3-5 MBq, 8-11 GBq/μmol, through a tail vein catheter, and dynamic imaging was performed over 45-60 min after radiolabelled compound administration. PET acquisition (150 s per frame, using list mode acquisition) using an ultra-high resolution rat/mouse 1.8 mm collimator, followed by a cone-beam CT scan (55 kV, 0.19 mA) for anatomical reference and attenuation correction. Anaesthesia was maintained at 2.5% isoflurane throughout the duration of the image acquisition. PET images were reconstructed using U-SPECT-Rec3.22 software (MILabs, Utrecht, The Netherlands), applying a pixel-based algorithm with 8 subsets, 6 iterations and 0.8 mm voxel size for ^18F (energy window settings 477.9-584.1 keV).
# (§3) After PET/CT image acquisition, animals were euthanized by cervical dislocation and selected organs, tissues and blood were removed. The amount of radioactivity in each organ was measured using a 2480 WIZARD^2 gamma counter (PerkinElmer). Counts per minute were converted into MBq using a calibration curve generated from known standards. Values were decay-corrected to the time of injection, and the percentage of the injected dose per gram (% ID/g) of each tissue was calculated.
# [2] = Dynamic PET blood clearance in naïve CBA/Carl mice; format: in vivo; details: i.v. 3 MBq
# [3] = system: U87MG and U251MG xenografts; assay: 18F-olaparib biodistribution in U87MG and U251MG tumour xenograft mouse models; format: in vivo, Balb/c nude mice; details: both U87MG and U251MG tumours, 60-120 min p.i.
# Protocol: U87MG and U251MG xenografts were generated in Balb/c nude mice. The xenograft models were administered various doses (0.5, 1.0, 4.0, and 8.0 μg) of ^18F-olaparib by tail vein injection. At 60-120 min post-injection, mice were sacrificed and organs were collected for biodistribution; see FIGS. 27(a) and (b), and FIG. 28(a). […] We predicted that the uptake for the U251MG xenografts would be greater, but in vivo there is no significant difference between the % ID/g for the U251MG or U87MG xenograft tumours.
# A 20-fold excess of cold olaparib was injected via tail vein 60 m prior to 1 μg of ^18F-olaparib via tail vein. The mice were sacrificed at 60-120 min post-injection and organs were harvested.
# Capan-1 xenograft = assay: Ex vivo biodistribution in Capan-1 xenograft bearing mice; details: for Ex vivo biodistribution Bone / Ex vivo biodistribution Kidney / Ex vivo biodistribution Large intestine / Ex vivo biodistribution Liver / Ex vivo biodistribution Muscle / Ex vivo biodistribution Pancreas / Ex vivo biodistribution Skin / Ex vivo biodistribution Small intestine / Ex vivo biodistribution Spleen / Ex vivo biodistribution Stomach: Capan-1 xenograft mice, 1 h p.i., individual animals; for tumour uptake (group mean): Capan-1 xenografts
# Protocol: All animal procedures were performed in accordance with the UK Animals (Scientific Procedures) Act 1986 and with local ethical committee approval. Animals were housed in IVC cages in sex-matched groups up to 5 per cage, in an artificial day-night cycle facility, with ad libitum access to food and water. Tumour xenografts or allografts were generated by subcutaneous injection of PANC-1 or Capan-1 cell suspensions in the hind flank of balb/c nu/nu animals. CaNT xenografts were generated by harvesting CaNT tumours from donor animals, and injecting a tumour homogenate subcutaneously in the flank of wild type CBA/Carl mice. Tumours were irradiated (10 Gy, 2 Gy/min) using a 300 kV X-ray device.
# as §1
# Cells were harvested using trypsin, washed twice using PBS, and reconstituted in DMEM. Panc-1 or Capan-1 xenograft tumours were established in the right hind flank of female NOD/SCID mice (Charles River, UK) by subcutaneous injection of 1×10^6 cells in PBS:matrigel (150 μL). Tumour volumes (V) were calculated after calliper measurement using the following equation: V=(a^2×b)/2, where a is the width of the tumour and b the length (small and large diameters, respectively). The individual relative tumour volume (RTV) was defined as Vt/Vo, where Vt is the volume at a given time and Vo at the start of treatment. Animals were entered in in vivo studies when their tumour was at least 200 mm^3.
# Two hours prior to PET/CT imaging, animals were exposed to X-irradiation of the tumour (10 Gy or sham) (see schedule in FIG. 13). Radiation was delivered using a Gulmay 320 kV X-irradiator; 2.0 Gy/min. Anaesthesia was maintained at 2.5% isoflurane throughout the duration of the irradiation, and animals were allowed to recover. To study the relationship of PARP1 expression, ^18F-olaparib uptake and hypoxia, animals were administered 0.6 μg in 200 μL (0.9% saline) intraperitoneally, one hour prior to PET/CT imaging. Naïve CBA/Carl mice, not bearing tumours, were not irradiated, nor was EF5 administered.
# as §2, §3
smiles,measurement,setting,value
O=C(c1cc(Cc2n[nH]c(=O)c3ccccc23)ccc1[18F])N1CCN(C(=O)C2CC2)CC1 [[^18F]olaparib],Ex vivo biodistribution Blood,[1],0.11 % ID/g (2×) and 0.14 % ID/g
same,Ex vivo biodistribution Fat,[1],0.05 % ID/g and 0.03 % ID/g and 0.26 % ID/g
same,Ex vivo biodistribution Heart,[1],0.19 % ID/g and 0.17 % ID/g and 0.34 % ID/g
same,Ex vivo biodistribution Kidney,[1],0.59 % ID/g and 0.60 % ID/g and 1.01 % ID/g
same,Ex vivo biodistribution Large intestine,[1],0.92 % ID/g and 1.64 % ID/g and 2.99 % ID/g
same,Ex vivo biodistribution Liver,[1],2.55 % ID/g and 4.02 % ID/g and 5.27 % ID/g
same,Ex vivo biodistribution Lung,[1],0.29 % ID/g and 0.19 % ID/g and 0.34 % ID/g
same,Ex vivo biodistribution Muscle,[1],0.20 % ID/g and 0.14 % ID/g and 0.34 % ID/g
same,Ex vivo biodistribution Pancreas,[1],0.91 % ID/g and 0.70 % ID/g and 1.30 % ID/g
same,Ex vivo biodistribution Skin,[1],0.16 % ID/g and 0.10 % ID/g and 0.27 % ID/g
same,Ex vivo biodistribution Small intestine,[1],7.75 % ID/g and 10.33 % ID/g and 17.40 % ID/g
same,Ex vivo biodistribution Spleen,[1],2.09 % ID/g and 1.91 % ID/g and 3.68 % ID/g
same,Ex vivo biodistribution Stomach,[1],0.46 % ID/g and 0.26 % ID/g and 0.58 % ID/g
same,clearance pattern,[2]; dynamic PET,hepatobilliary
same,weighted blood half-life,[2],19.3 min
same,blood clearance fast half-life,"[2]; biphasic fit, fast phase (44%)",2.8 min
same,blood clearance slow half-life,"[2]; biphasic fit, slow phase (56%)",32.3 min
same,decrease of tumour % ID/g at 8.0 μg compared to 1.0 μg tracer,[3],> 50%
same,Ex vivo biodistribution Bone,Capan-1 xenograft; + IR (10 Gy),0.31 % ID/g and 0.16 % ID/g and 0.19 % ID/g
same,Ex vivo biodistribution Kidney,Capan-1 xenograft; + IR (10 Gy),4.66 % ID/g and 1.03 % ID/g and 3.67 % ID/g
same,Ex vivo biodistribution Large intestine,Capan-1 xenograft; + IR (10 Gy),5.21 % ID/g and 3.30 % ID/g and 5.86 % ID/g
same,Ex vivo biodistribution Liver,Capan-1 xenograft; + IR (10 Gy),9.16 % ID/g and 5.93 % ID/g and 6.67 % ID/g
same,Ex vivo biodistribution Muscle,Capan-1 xenograft; + IR (10 Gy),0.63 % ID/g and 0.29 % ID/g and 0.48 % ID/g
same,Ex vivo biodistribution Pancreas,Capan-1 xenograft; + IR (10 Gy),1.89 % ID/g and 1.59 % ID/g and 1.84 % ID/g
same,Ex vivo biodistribution Skin,Capan-1 xenograft; + IR (10 Gy),0.67 % ID/g and 0.23 % ID/g and 0.33 % ID/g
same,Ex vivo biodistribution Small intestine,Capan-1 xenograft; + IR (10 Gy),15.58 % ID/g and 9.80 % ID/g and 19.97 % ID/g
same,Ex vivo biodistribution Spleen,Capan-1 xenograft; + IR (10 Gy),0.77 % ID/g and 0.73 % ID/g and 0.82 % ID/g
same,Ex vivo biodistribution Stomach,Capan-1 xenograft; + IR (10 Gy),0.38 % ID/g and 0.36 % ID/g and 0.64 % ID/g
same,Ex vivo biodistribution Bone,Capan-1 xenograft; + block (excess cold olaparib),2.17 % ID/g and 0.47 % ID/g and 1.27 % ID/g
same,Ex vivo biodistribution Kidney,Capan-1 xenograft; + block (excess cold olaparib),4.16 % ID/g and 1.26 % ID/g and 3.32 % ID/g
same,Ex vivo biodistribution Large intestine,Capan-1 xenograft; + block (excess cold olaparib),5.00 % ID/g and 2.91 % ID/g and 4.06 % ID/g
same,Ex vivo biodistribution Liver,Capan-1 xenograft; + block (excess cold olaparib),9.79 % ID/g and 3.62 % ID/g and 6.88 % ID/g
same,Ex vivo biodistribution Muscle,Capan-1 xenograft; + block (excess cold olaparib),0.88 % ID/g and 0.28 % ID/g and 0.65 % ID/g
same,Ex vivo biodistribution Pancreas,Capan-1 xenograft; + block (excess cold olaparib),10.22 % ID/g and 4.56 % ID/g and 10.82 % ID/g
same,Ex vivo biodistribution Skin,Capan-1 xenograft; + block (excess cold olaparib),1.16 % ID/g
same,Ex vivo biodistribution Small intestine,Capan-1 xenograft; + block (excess cold olaparib),46.04 % ID/g and 0.45 % ID/g and 11.70 % ID/g
same,Ex vivo biodistribution Spleen,Capan-1 xenograft; + block (excess cold olaparib),6.43 % ID/g and 2.80 % ID/g and 7.93 % ID/g
same,Ex vivo biodistribution Stomach,Capan-1 xenograft; + block (excess cold olaparib),0.94 % ID/g and 0.30 % ID/g and 0.49 % ID/g
same,Ex vivo biodistribution Bone,Capan-1 xenograft; tracer alone,1.46 % ID/g and 0.98 % ID/g and 1.26 % ID/g and 3.08 % ID/g
same,Ex vivo biodistribution Kidney,Capan-1 xenograft; tracer alone,4.32 % ID/g and 2.05 % ID/g and 4.91 % ID/g and 5.22 % ID/g
same,Ex vivo biodistribution Large intestine,Capan-1 xenograft; tracer alone,4.99 % ID/g and 4.50 % ID/g and 4.14 % ID/g and 8.14 % ID/g
same,Ex vivo biodistribution Liver,Capan-1 xenograft; tracer alone,11.78 % ID/g and 5.79 % ID/g and 10.32 % ID/g and 22.63 % ID/g
same,Ex vivo biodistribution Muscle,Capan-1 xenograft; tracer alone,0.65 % ID/g and 0.45 % ID/g and 0.63 % ID/g and 1.44 % ID/g
same,Ex vivo biodistribution Pancreas,Capan-1 xenograft; tracer alone,9.32 % ID/g and 8.12 % ID/g and 7.87 % ID/g and 13.16 % ID/g
same,Ex vivo biodistribution Skin,Capan-1 xenograft; tracer alone,0.02 % ID/g and 0.55 % ID/g and 0.77 % ID/g and 1.54 % ID/g
same,Ex vivo biodistribution Small intestine,Capan-1 xenograft; tracer alone,12.27 % ID/g and 17.29 % ID/g and 11.58 % ID/g and 13.70 % ID/g
same,Ex vivo biodistribution Spleen,Capan-1 xenograft; tracer alone,9.84 % ID/g and 6.13 % ID/g and 8.40 % ID/g and 15.10 % ID/g
same,Ex vivo biodistribution Stomach,Capan-1 xenograft; tracer alone,1.55 % ID/g and 0.63 % ID/g and 1.14 % ID/g and 3.42 % ID/g
same,tumour uptake (group mean),Capan-1 xenograft; excess cold olaparib,1.00±0.17
same,tumour uptake (group mean),Capan-1 xenograft; tracer alone,2.59±0.32 % ID/g
